Like-named read-outs stand apart in the source and are kept apart here. Square brackets hold non-standard residues; d marks the D form. Peptide text beside a SMILES is read from it.
Key:
Aβ(1-42) fibrils = target: T1, Aβ(1-42) fibrils (Homo sapiens, UniProt P05067); test: SPR single-cycle kinetics on immobilized Aβ(1-42) fibrils; settings: fibrils by density gradient centrifugation, 1324 RU immobilized, binding model with three binding sites
T1 construct: oligomers and fibrils being composed of a 1:10 ratio of biotinylated Aβ(1-42) to non-biotinylated Aβ(1-42)
T1 sequence (P05067 672-713 limits assumed): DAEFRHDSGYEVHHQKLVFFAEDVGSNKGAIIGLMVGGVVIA
Description: (§1) The results can be obtained by surface plasmon resonance or by biolayer interferometry. In the case of surface plasmon resonance, regeneration steps between individual analyte injections are circumvented by carrying out the interaction studies using the “single-cycle kinetics” measurement method. Thus, advantageously, different analyte concentrations are injected directly one after the other.
(§2) In order to ensure a homogeneous sample preparation, monomers and oligomers were separated by means of size exclusion chromatography (SEC), and fibrils were separated from other forms by means of density gradient centrifugation. The immobilization on streptavidin-loaded SPR sensor surfaces took place by using biotinylated Aβ(1-42), oligomers and fibrils being composed of a 1:10 ratio of biotinylated Aβ(1-42) to non-biotinylated Aβ(1-42).
(§3) The lyophilized samples of N-terminally biotinylated Aβ(1-42) and non-biotinylated Aβ(1-42) were each dissolved separately from one another in 100% hexafluoroisopropanol (HIFP) and incubated overnight at room temperature. The volumes required for a 1:10 ratio were then combined and the HFIP was evaporated off using a concentrator.
For the preparation of fibrillar Aβ(1-42), the pellets obtained after the evaporation were dissolved in 10 mM sodium phosphate buffer pH 7.4 and incubated for 24 hours at 25° C. and at 600 rpm.
(§4) The density gradient was prepared by subsequently layering over the density gradient solution (iodixanol diluted in 10 mM sodium phosphate buffer pH 7.4) in concentrations of 50% (260 μl), 40% (260 μl), 30% (260 μl), 20% (260 μl), 10% (260 μl) and 5% (100 μl) (v/v). The samples were then pipetted onto the density gradient and centrifugation was carried out for 3 hours at 4° C. and 259000 g. A total of 14 fractions, each of 140 μl, was then removed from the density gradient from top to bottom. Monomers are found in the first fraction, oligomers are found in fractions 5 and 6, and fibrils are found typically in fractions 11-13.
The monomers are biotinylated C-terminally, unlike the oligomers and fibrils (N-terminally). The response units (Y-axis) were plotted against the time in seconds (X-axis), wherein the black curves represent the double-referenced experimental data and the gray superposed curves represent the fits. For characterizing the scFv-IC16, therefore, measurements using biotinylated Aβ(1-42) are possible; C-terminally biotinylated Aβ(1-42) was used here. For fitting to monomers, a 1:1 Langmuir binding model was used and oligomers and fibrils were fitted to a heterogeneous binding model which takes account of two different binding sites on the sensor surface. It can clearly be seen that the fits coincide very well with the experimental data. This is direct evidence of the successful immobilization of the various forms and the respectively homogeneous surface.
The index a1 and d1 refer respectively to the association and dissociation rate of the antibody fragment scFv-IC16 on the respective exposed epitope of the conformer. The index a2 and d2, on the other hand, refer respectively to the association and dissociation rate of the antibody fragment scFv-IC16 on discontinuous epitopes of the respective conformer. Analogously, the indices D1 and D2 refer to the dissociation constants on the continuous and discontinuous epitope.
The D-enantiomeric peptide D7 was identified by a mirror image […] selection and analyzed using the method described above with regard to the binding properties, by way of example as a substance to be tested. In a manner differing from the measurement data in FIG. 3, in this case, all the different Aβ(1-42) conformers (monomers, oligomers and fibrils) were prepared by means of density gradient centrifugation and immobilized in various quantities on the sensor surface. In the case of the monomers, 1423 RU were immobilized, in the case of the oligomers 1356 RU, and in the case of the fibrils 1324 RU. […]

Aβ(1-42) monomers = target: T2, Aβ(1-42) monomers (Homo sapiens, UniProt P05067); test: SPR single-cycle kinetics on immobilized Aβ(1-42) monomers; settings: monomers by density gradient centrifugation, 1423 RU immobilized, heterogeneous binding model, two sites
T2 construct: sensor surfaces containing immobilized Aβ(1-42) monomers, oligomers and fibrils
T2 sequence (P05067 672-713 limits assumed): as above
Description: as §1, §2, §3
(§5) For the preparation of monomeric and oligomeric Aβ(1-42), the previously obtained pellet was taken up in the size exclusion chromatography buffer (50 mM sodium phosphate buffer, 150 mM NaCl, 0.6% Tween 20, pH 7.4) and briefly centrifuged for 30 seconds at 15500 g in order to sediment insoluble material.
(§6) The supernatant after the centrifugation step at the end of the preparation of monomeric and oligomeric Aβ(1-42) was then applied directly to a Superdex 75 10/300 GL (GE Healthcare) column for chromatographic separation. The flow rate during the elution with size exclusion chromatography buffer was 0.8 ml/min. Monomers eluted at ˜14 ml, whereas oligomers eluted at ˜8 ml.
as §4
(§7) The monomers are biotinylated C-terminally, unlike the oligomers and fibrils (N-terminally). The response units (Y-axis) were plotted against the time in seconds (X-axis), wherein the black curves represent the double-referenced experimental data and the gray superposed curves represent the fits. […]

Aβ(1-42) oligomers = target: T3, Aβ(1-42) oligomers (Homo sapiens, UniProt P05067); test: SPR single-cycle kinetics on immobilized Aβ(1-42) oligomers; settings: oligomers by density gradient centrifugation, 1356 RU immobilized, heterogeneous binding model, two sites
T3 construct: oligomers and fibrils being composed of a 1:10 ratio of biotinylated Aβ(1-42) to non-biotinylated Aβ(1-42)
T3 sequence (P05067 672-713 limits assumed): as above
Description: as §1, §2, §3, §5, §6, §4, §7

[1] = sub-reaction 1, read-out: ka1 association rate
[2] = sub-reaction 1, read-out: kd1 dissociation rate
[3] = sub-reaction 2, read-out: ka2 association rate
[4] = sub-reaction 2, read-out: kd2 dissociation rate

kon (Aβ(1-42) fibrils; [1]): 18200 M⁻¹ s⁻¹
koff (Aβ(1-42) fibrils; [2]): 0.262 s⁻¹
kon (Aβ(1-42) fibrils; [3]): 1320 M⁻¹ s⁻¹
koff (Aβ(1-42) fibrils; [4]): 0.000193 s⁻¹
kon (Aβ(1-42) fibrils; sub-reaction 3, read-out: ka3 association rate): 32300 M⁻¹ s⁻¹
koff (Aβ(1-42) fibrils; sub-reaction 3, read-out: kd3 dissociation rate): 0.0125 s⁻¹
kon (Aβ(1-42) monomers; [1]): 2420 M⁻¹ s⁻¹
koff (Aβ(1-42) monomers; [2]): 0.000364 s⁻¹
kon (Aβ(1-42) monomers; [3]): 100000 M⁻¹ s⁻¹
koff (Aβ(1-42) monomers; [4]): 0.00928 s⁻¹
kon (Aβ(1-42) oligomers; [1]): 4520 M⁻¹ s⁻¹
koff (Aβ(1-42) oligomers; [2]): 0.000402 s⁻¹
kon (Aβ(1-42) oligomers; [3]): 66200 M⁻¹ s⁻¹
koff (Aβ(1-42) oligomers; [4]): 0.0153 s⁻¹
SMILES: CSCC[C@@H](NC(=O)[C@@H](Cc1c[nH]cn1)NC(=O)[C@@H](Cc1ccc(O)cc1)NC(=O)[C@H](NC(=O)[C@@H](Cc1ccc(O)cc1)NC(=O)[C@@H](Cc1ccc(O)cc1)NC(=O)[C@@H](CCC(=O)O)NC(=O)[C@@H](Cc1ccccc1)NC(=O)[C@@H](CCCNC(=N)N)NC(=O)[C@H](NC(=O)[C@H](N)Cc1c[nH]cn1)[C@H](C)O)C(C)C)C(=O)N[C@H](CO)C(=O)O [D7, htrfeyyvyhms] (H-[dH][dT][dR][dF][dE][dY][dY][dV][dY][dH][dM][dS]-OH; N-terminus and C-terminus assumed)

From patent US10746747B2, “Method for quantitative characterization of substances with regard to their properties of binding to amyloid-β (Aβ) conformers” (FORSCHUNGSZENTRUM JUELICH GMBH, priority 2013, dated 2020)
